# Assay results taken from patent publication US20090281174A1, “SENESCENCE INHIBITOR” (KAO CORPORATION, priority 2006, published 2009).
# Test system: SAM-P1 male mice (mice of senescence-accelerated model)
# Experiment: Maximum force of soleus muscle under electrical stimulation in senescence-accelerated mice
# Assay type: in vivo, mouse
# Conditions: after breeding for 9 weeks
# Protocol: Thereafter, these mice were divided into the following groups (eight mice in each group): […] The mice of each group were subjected to a physical exercise at 10 m/min for 3 minutes in a running-water pool five times a day and four days a week. After breeding for nine weeks, a soleus muscle was removed from a mouse of each group through dissection and fixed to a transducer (FORT100, product of World Precision Instruments, Inc.) in Krebs solution of 37° C. (aeration: 95%-oxygen, 5%-carbon dioxide). Subsequently, under electrical stimulation (0.5 msec, 140 Hz), the maximum muscle force of the muscle sample was determined.
structure (smiles),measurement,setting,value
"CC(C)C[C@H](N)C(=O)O [leucine, Leucine]",Maximum soleus muscle force compared with SAM-P1 control group,Dunnet test,No significant difference
same,Maximum muscle force,"soleus muscle, electrical stimulation 0.5 msec 140 Hz, diet 0.35% of each ingredient",11.1 ± 0.7 g
